{
  "source": "patent US20250353825A1",
  "about": "“CANNABICYCLOL DERIVATIVES AND PREPARATION METHODS THEREOF” (priority 2023, published 2025)",
  "assay_type_in_all_cases": "cell-based",
  "key": {"[1]": {"test_system": "liver cancer carcinoma cell line SMMC7721", "experiment": "Soft agar colony (clone) formation, SMMC7721", "details": "crystal violet, FIG. 4, compound 3a 0, 5 and 5 [sic] μg/mL", "protocol": "[…] of low-melting-point agarose was dissolved in 12.5 mL of ddH2O to prepare a 3.2% low-melting-point agarose gel. The low-melting-point agarose gel was sterilized by autoclaving at 121° C. and 0.12 MPa for 20 minutes. After sterilization, the low-melting-point agarose gel was maintained at 60° C. in a drying oven for further use.\n1.75 mL of 3.2% sterile low-melting-point agarose gel was taken, 5.25 mL of the corresponding complete medium was added, and the two were mixed thoroughly using a pipette to prepare a base gel at a concentration of 0.8%.\n1 mL of the base gel was added to each well of a 6-well plate, ensuring that the base gel evenly covered the bottom of each well. The plate was placed at 4° C. for 5 minutes to allow the gel to solidify. After the gel had fully solidified, the plate was warmed at 37° C. for 5 minutes.\n6 cells/cell lines (U251, SMMC7721, GSC-3, GSC-12, SMMC7721-CSC, and HepG2-CSC) were individually digested with 1× trypsin for 3 minutes. The corresponding complete culture medium (same as in the application example 1) was added to terminate the digestion. Cells were centrifuged at 1000 rpm for 3 minutes, and the cells were collected and counted. A total of 5×10^3 cells were added to each well, each group was set up with three replicates. […]"}, "ASPC1": {"test_system": "ASPC1", "experiment": "MTS cell viability assay, ASPC1", "details": "Homo sapiens, Table 7, 72 hours, read-out: IC50 against ASPC1", "protocol": "(§1) Primary viability screening: (1) the synthesized compounds 3a to 13d were respectively dissolved in DMSO to prepare a 40 μg/mL cannabicyclol and cannabicyclol derivative solutions.\n(§2) (2) A control group: a 200 μL DMSO solvent.\n(§3) (3) The solutions of compounds 3a to 13d were diluted in a twofold gradient to obtain cannabicyclol and cannabicyclol derivative solutions at concentrations of 40 μg/mL, 20 μg/mL, 10 μg/mL, 5 μg/mL, 2.5 μg/mL, 1.25 μg/mL, and 0.625 μg/mL, and 0.3125 μg/mL, respectively.\n(§4) (4) Three glioblastoma stem cells (GSC-3, GSC-12, and GSC-18), three pancreatic cancer cell-derived stem cells (PANC-1-CSC, BXPC-3-CSC, and ASPC1-CSC), three liver cancer cell-derived stem cells (HepG2-CSC, MHCC97H-CSC, and SMMC7721-CSC), HEK-293T cells, 16 tumor cells (U251, U87, T98G, PANC1, BXPC3, ASPC1, HepG2, MHCC97H, SMMC7721, PC3, SKOV3, MDA-MB231, A549, HCT116, HEC-1B, MKN28), and differentiated glioblastoma stem cells (GSC-3diff and GSC-12diff) derived from GSC-3 and GSC-12 (all of the cells were provided by the Laboratory of Tumor Animal Model Preparation and Application Research, West China Hospital, Sichuan University) were inoculated into a 96-well plate at a concentration of 2×10^4 cells/well, and 100 μL of culture medium was then added to each well; […]\n(§5) (10) The absorbance value at 490 nm was measured on an enzyme labeling apparatus, and the IC50 value was calculated."}, "HepG2": {"test_system": "HepG2", "experiment": "MTS cell viability assay, HepG2", "details": "Homo sapiens, Table 7, 72 hours, read-out: IC50 against HepG2", "protocol": "as §1, §2, §3, §4, §5"}, "GSC-3 (3#-GSC)": {"test_system": "GSC-3 (3#-GSC)", "experiment": "MTS cell viability assay, glioblastoma stem cells GSC-3 (3#-GSC)", "protocol": "as §1, §2, §3\n(§6) (4) Three glioblastoma stem cells (GSC-3, GSC-12, and GSC-18), three pancreatic cancer cell-derived stem cells (PANC-1-CSC, BXPC-3-CSC, and ASPC1-CSC), three liver cancer cell-derived stem cells (HepG2-CSC, MHCC97H-CSC, and SMMC7721-CSC), HEK-293T cells, 16 tumor cells (U251, U87, T98G, PANC1, BXPC3, ASPC1, HepG2, MHCC97H, SMMC7721, PC3, SKOV3, MDA-MB231, A549, HCT116, HEC-1B, MKN28), and differentiated glioblastoma stem cells (GSC-3diff and GSC-12diff) derived from GSC-3 and GSC-12 (all of the cells were provided by the Laboratory of Tumor Animal Model Preparation and Application Research, West China Hospital, Sichuan University) were inoculated into a 96-well plate at a concentration of 2×10^4 cells/well, and 100 μL of culture medium was then added to each well;\n(§7) (5) 2) HEK-293T, GSC-3diff, GSC-12diff, and the 16 tumor cells were added with DMEM, 10% FBS, and 1% double antibody culture medium. Cancer stem cells (CSCs) were added with serum-free stem cell medium consisting of DMEM/F12, EGF (20 ng/mL), bFGF (20 ng/mL), B27 (1×), and 1% double antibody culture medium.\n(§8) (6) Inoculated cells were put into a cell culture incubator for 24 hours, and after the cells were well adhered to the wall, the culture medium in the 96-well plate was discarded.\n(§9) (7) 200 μL cannabicyclol and cannabicyclol derivatives solutions at different concentrations were added to the cultured cells.\n(§10) (8) The experiment was set up with 3 replicates.\n(§11) (9) The 96-well plate was placed in a cell culture incubator, and incubation was continued at 37° C. and 5% CO2 for 72 hours. Then, 100 μL of cannabicyclol and cannabicyclol derivative solution per well was discarded (100 μL of DMSO solvent was discarded for the control group), and 20 μL of LMTS (CellTiter AQueous Non-Radioactive Cell Proliferation Assay, #G3581) was mixed and continued to be placed in the cell incubator for 2 hours of incubation.\nas §5"}, "T98G": {"test_system": "T98G", "experiment": "MTS cell viability assay, T98G", "details": "Homo sapiens, Table 7, 72 hours, read-out: IC50 against T98G", "protocol": "as §1, §2, §3, §4, §5"}, "SMMC7721-CSC": {"test_system": "SMMC7721-CSC", "experiment": "MTS cell viability assay, SMMC7721-CSC", "details": "Table 6, tumor stem cell, 72 hours; read-out: IC50 against SMMC7721-CSC", "protocol": "as §1, §2, §3, §4, §5"}, "[2]": {"experiment": "MTS cell viability assay, HEK-293T (293T) normal cells", "details": "human; primary viability screening, 72 hours, MTS; test concentration not stated; read-out: Cell viability in 293T (%)", "protocol": "as §1, §2, §3, §6, §7, §8, §9, §10, §11, §5"}, "HEK-293T": {"test_system": "HEK-293T", "experiment": "MTS cell viability assay, HEK-293T (293T) normal cells", "details": "Homo sapiens, HEK-293T, 72 h, read-out: IC50 against HEK-293T", "protocol": "as §1, §2, §3, §6, §7, §8, §9, §10, §11, §5"}, "SMMC7721": {"test_system": "SMMC7721", "experiment": "MTS cell viability assay, SMMC7721", "details": "Homo sapiens, SMMC-7721; Table 7, 72 hours; read-out: IC50 against SMMC7721", "protocol": "as §1, §2, §3, §4, §5"}},
  "data": [
    {"compound": "CCCCCc1cc(O)c2c(c1)OC1(C)CCC3C1C2C3(C)C", "note": "(centres unmarked) [Compound 3a, cannabicyclol]", "values": [
      {"measurement": "colony formation of SMMC7721", "setting": "[1]", "result": "significantly inhibited"},
      {"measurement": "IC50", "setting": "ASPC1", "result": "> 40", "unit": "µg/mL"},
      {"measurement": "IC50", "setting": "HepG2", "result": "> 40", "unit": "µg/mL"},
      {"measurement": "IC50", "setting": "GSC-3 (3#-GSC); GSC-3, 72 h, read-out: IC50 against GSC-3", "result": 3.85, "unit": "µg/mL"},
      {"measurement": "selective anti-glioma stem cell viability", "setting": "GSC-3 (3#-GSC); judged in words from preliminary viability screening against 3#-GSC, 293T and U251", "result": "a certain degree of selective anti-glioma stem cell viability"},
      {"measurement": "Cell viability in 3#-GSC (%)", "setting": "GSC-3 (3#-GSC); primary viability screening, 72 hours, MTS, test concentration not stated", "result": 20, "unit": "%"},
      {"measurement": "IC50", "setting": "T98G", "result": "> 40", "unit": "µg/mL"},
      {"measurement": "IC50", "setting": "SMMC7721-CSC", "result": 3.85, "unit": "µg/mL"},
      {"measurement": "viability at 72 h", "setting": "[2]", "result": 82, "unit": "%"},
      {"measurement": "IC50", "setting": "HEK-293T", "result": "> 40", "unit": "µg/mL"},
      {"measurement": "IC50", "setting": "SMMC7721", "result": "> 40", "unit": "µg/mL"}
    ]}
  ]
}
